Test results reported in patent US8741576B2, “Heteroclitic analogs and related methods” (Epimunne Inc., priority 1999, dated 2014).
Ends that are not written are not given here.

biological target: HLA-B7 (B*0702) (Homo sapiens, UniProt P01889); test: HLA-B7 (B*0702) peptide binding, competition with radiolabeled SS 5-13a (L7→Y) peptide; conditions: purified HLA-B7

Row | Molecule | IC50 [nM]
1 | VPISHLMIL [MAGE2.170M7] | 69
2 | VPISHLHIL [MAGE2.170H7] | 75
3 | VPISHLGIL [MAGE2.170G7] | 105
4 | VPISHLEIL [MAGE2.170E7] | 186

system: human PBMC CTL; 624mel tumor cell line; test: Primary in vitro CTL induction from human PBMC with MAGE3.112 or analogs; conditions: IFNγ against .221A2.1 cells with or without peptide

Row | Molecule | peptide-specific CTL responses in human PBMC cultures stimulated with the peptide
5 | CC[C@H](C)[C@H](NC(=O)[C@H](CCC(=O)O)NC(=O)[C@H](C)NC(=O)[C@@H](NC(=O)[C@@H](N)CCCCN)C(C)C)C(=O)N[C@H](C(=O)N[C@@H](Cc1c[nH]cn1)C(=O)N[C@@H](Cc1ccccc1)C(=O)N[C@@H](CC(C)C)C(=O)O)C(C)C [MAGE3.112 I5] | Peptide-specific CTL responses were detected
6 | CC(C)C[C@H](NC(=O)[C@H](Cc1ccccc1)NC(=O)[C@H](Cc1c[nH]c2ccccc12)NC(=O)[C@@H](NC(=O)[C@H](CC(C)C)NC(=O)[C@H](CCC(=O)O)NC(=O)[C@H](C)NC(=O)[C@@H](NC(=O)[C@@H](N)CCCCN)C(C)C)C(C)C)C(=O)O [MAGE3.112 W7] | Peptide-specific CTL responses were detected
